Key:
CAD cells = test: Lysosome motility assay in CAD cell neurites (LysoTracker); format: cell-based, murine; details: for Percentage of retrograde-directed lysosomes moving slower than 25 nm/s: 60 min; for Average track length of moving particles (lysosomes): 1 min imaging, control 32 ± 11 µm
Text: This bidirectional transport of lysosomes requires kinesins and dynein 1 and can be observed by imaging live cells stained with the LysoTracker dye ([Vale, 2003]; [Pu et al., 2016]). A coupling between anterograde and retrograde motion has been described for membrane-bound organelles, with disruption of dynein-driven motion blocking bi-directional organelle motility ([Barlan et al., 2013]). We imaged control solvent (0.1% DMSO) treated cells and observed bidirectional motion of LysoTracker-labelled puncta (Figure 5E,H,K, Video 5). Overlays of successive images from a time-lapse series, color-coded for displacement, reveal organelle displacements (Figure 5H–J). […] Treatment with dynapyrazole-A suppressed bidirectional motion. In particular, the percentage of retrograde-directed lysosomes moving slower than 25 nm/s increased to ~47% (3.5µM) and ~59% (5µM) while the proportion of lysosomes moving at speeds > 250 nm/s decreased to below 10% (Figure 5N). We observed equivalent effects of dynapyrazole-A on anterograde motion velocities (kymographs in Figure 5K,L and M). In control cells, lysosomes with measureable displacements had trajectories that averaged 32 ± 11 µm (Figure 5O). Dynapyrazole-A (3.5 µM, Figure 5I and L) reduced the average track length of moving particles to 15.7 ± 4.7 µm, which can be seen as white punctae that result from the overlay of multiple color-coded frames without particle translocation. A higher dose of dynapyrazole-A 5 µM) shortened the average track length of moving particles to 6.7 ± 2.7 µm (Figure 5J,M,O). […] Higher concentrations of dynapyrazole-A (15 µM) lowered intracellular ATP levels by ~70% at 3 hr (Figure 5—figure supplement 5).
CAD cells (catecholaminergic neuronal tumor cell line, RRID:CVCL_0199) were maintained in DMEM/F12 medium with 10% Fetal Bovine Serum ([Qi et al., 1997]). Cell line identity was confirmed by the morphological response to serum withdrawal (i.e. neurite formation), a previously-documented characteristic of this cell line ([Qi et al., 1997]). 24 hr before the experiment cells were plated on coverslips in serum-free medium to induce neurite formation. Cells were treated with inhibitors or control solvent (0.1% DMSO final in all experiments) for 60 min, then lysosomes were labeled with 0.1 µM (final concentration) LysoTracker Red DND-99 (Molecular Probes) and used for microscopy immediately after LysoTracker addition.
Microscopy was performed using a Nikon TE-2000 inverted microscope equipped with a LED X-Cite illuminator (Lumen Dynamics) at 37 degrees. Images were acquired with a Hamamatsu ORCA-Flash 4.0 camera driven by MetaMorph software at a rate of 1 frame per second for 1 min. Lysosome motility in neurites was analyzed using Diatrack software (http://www.diatrack.org/), particle velocities were measured from frame to frame and the total length of trajectories divided by the number of analyzed organelles was calculated for every experimental condition.

His-dynein 1 = target: T1, His-dynein 1 (Homo sapiens, UniProt Q14204); test: Ultraviolet light and ADP-vanadate-dependent photocleavage of dynein; format: biochemical; details: 4 µM compound
T1 construct: (wild-type, K1912A, K2601A, AA 1320–4646, uniprot: Q14204); made in house; host or cells: Sf9 insect cells (baculovirus)
T1 sequence (Q14204 1320-4646): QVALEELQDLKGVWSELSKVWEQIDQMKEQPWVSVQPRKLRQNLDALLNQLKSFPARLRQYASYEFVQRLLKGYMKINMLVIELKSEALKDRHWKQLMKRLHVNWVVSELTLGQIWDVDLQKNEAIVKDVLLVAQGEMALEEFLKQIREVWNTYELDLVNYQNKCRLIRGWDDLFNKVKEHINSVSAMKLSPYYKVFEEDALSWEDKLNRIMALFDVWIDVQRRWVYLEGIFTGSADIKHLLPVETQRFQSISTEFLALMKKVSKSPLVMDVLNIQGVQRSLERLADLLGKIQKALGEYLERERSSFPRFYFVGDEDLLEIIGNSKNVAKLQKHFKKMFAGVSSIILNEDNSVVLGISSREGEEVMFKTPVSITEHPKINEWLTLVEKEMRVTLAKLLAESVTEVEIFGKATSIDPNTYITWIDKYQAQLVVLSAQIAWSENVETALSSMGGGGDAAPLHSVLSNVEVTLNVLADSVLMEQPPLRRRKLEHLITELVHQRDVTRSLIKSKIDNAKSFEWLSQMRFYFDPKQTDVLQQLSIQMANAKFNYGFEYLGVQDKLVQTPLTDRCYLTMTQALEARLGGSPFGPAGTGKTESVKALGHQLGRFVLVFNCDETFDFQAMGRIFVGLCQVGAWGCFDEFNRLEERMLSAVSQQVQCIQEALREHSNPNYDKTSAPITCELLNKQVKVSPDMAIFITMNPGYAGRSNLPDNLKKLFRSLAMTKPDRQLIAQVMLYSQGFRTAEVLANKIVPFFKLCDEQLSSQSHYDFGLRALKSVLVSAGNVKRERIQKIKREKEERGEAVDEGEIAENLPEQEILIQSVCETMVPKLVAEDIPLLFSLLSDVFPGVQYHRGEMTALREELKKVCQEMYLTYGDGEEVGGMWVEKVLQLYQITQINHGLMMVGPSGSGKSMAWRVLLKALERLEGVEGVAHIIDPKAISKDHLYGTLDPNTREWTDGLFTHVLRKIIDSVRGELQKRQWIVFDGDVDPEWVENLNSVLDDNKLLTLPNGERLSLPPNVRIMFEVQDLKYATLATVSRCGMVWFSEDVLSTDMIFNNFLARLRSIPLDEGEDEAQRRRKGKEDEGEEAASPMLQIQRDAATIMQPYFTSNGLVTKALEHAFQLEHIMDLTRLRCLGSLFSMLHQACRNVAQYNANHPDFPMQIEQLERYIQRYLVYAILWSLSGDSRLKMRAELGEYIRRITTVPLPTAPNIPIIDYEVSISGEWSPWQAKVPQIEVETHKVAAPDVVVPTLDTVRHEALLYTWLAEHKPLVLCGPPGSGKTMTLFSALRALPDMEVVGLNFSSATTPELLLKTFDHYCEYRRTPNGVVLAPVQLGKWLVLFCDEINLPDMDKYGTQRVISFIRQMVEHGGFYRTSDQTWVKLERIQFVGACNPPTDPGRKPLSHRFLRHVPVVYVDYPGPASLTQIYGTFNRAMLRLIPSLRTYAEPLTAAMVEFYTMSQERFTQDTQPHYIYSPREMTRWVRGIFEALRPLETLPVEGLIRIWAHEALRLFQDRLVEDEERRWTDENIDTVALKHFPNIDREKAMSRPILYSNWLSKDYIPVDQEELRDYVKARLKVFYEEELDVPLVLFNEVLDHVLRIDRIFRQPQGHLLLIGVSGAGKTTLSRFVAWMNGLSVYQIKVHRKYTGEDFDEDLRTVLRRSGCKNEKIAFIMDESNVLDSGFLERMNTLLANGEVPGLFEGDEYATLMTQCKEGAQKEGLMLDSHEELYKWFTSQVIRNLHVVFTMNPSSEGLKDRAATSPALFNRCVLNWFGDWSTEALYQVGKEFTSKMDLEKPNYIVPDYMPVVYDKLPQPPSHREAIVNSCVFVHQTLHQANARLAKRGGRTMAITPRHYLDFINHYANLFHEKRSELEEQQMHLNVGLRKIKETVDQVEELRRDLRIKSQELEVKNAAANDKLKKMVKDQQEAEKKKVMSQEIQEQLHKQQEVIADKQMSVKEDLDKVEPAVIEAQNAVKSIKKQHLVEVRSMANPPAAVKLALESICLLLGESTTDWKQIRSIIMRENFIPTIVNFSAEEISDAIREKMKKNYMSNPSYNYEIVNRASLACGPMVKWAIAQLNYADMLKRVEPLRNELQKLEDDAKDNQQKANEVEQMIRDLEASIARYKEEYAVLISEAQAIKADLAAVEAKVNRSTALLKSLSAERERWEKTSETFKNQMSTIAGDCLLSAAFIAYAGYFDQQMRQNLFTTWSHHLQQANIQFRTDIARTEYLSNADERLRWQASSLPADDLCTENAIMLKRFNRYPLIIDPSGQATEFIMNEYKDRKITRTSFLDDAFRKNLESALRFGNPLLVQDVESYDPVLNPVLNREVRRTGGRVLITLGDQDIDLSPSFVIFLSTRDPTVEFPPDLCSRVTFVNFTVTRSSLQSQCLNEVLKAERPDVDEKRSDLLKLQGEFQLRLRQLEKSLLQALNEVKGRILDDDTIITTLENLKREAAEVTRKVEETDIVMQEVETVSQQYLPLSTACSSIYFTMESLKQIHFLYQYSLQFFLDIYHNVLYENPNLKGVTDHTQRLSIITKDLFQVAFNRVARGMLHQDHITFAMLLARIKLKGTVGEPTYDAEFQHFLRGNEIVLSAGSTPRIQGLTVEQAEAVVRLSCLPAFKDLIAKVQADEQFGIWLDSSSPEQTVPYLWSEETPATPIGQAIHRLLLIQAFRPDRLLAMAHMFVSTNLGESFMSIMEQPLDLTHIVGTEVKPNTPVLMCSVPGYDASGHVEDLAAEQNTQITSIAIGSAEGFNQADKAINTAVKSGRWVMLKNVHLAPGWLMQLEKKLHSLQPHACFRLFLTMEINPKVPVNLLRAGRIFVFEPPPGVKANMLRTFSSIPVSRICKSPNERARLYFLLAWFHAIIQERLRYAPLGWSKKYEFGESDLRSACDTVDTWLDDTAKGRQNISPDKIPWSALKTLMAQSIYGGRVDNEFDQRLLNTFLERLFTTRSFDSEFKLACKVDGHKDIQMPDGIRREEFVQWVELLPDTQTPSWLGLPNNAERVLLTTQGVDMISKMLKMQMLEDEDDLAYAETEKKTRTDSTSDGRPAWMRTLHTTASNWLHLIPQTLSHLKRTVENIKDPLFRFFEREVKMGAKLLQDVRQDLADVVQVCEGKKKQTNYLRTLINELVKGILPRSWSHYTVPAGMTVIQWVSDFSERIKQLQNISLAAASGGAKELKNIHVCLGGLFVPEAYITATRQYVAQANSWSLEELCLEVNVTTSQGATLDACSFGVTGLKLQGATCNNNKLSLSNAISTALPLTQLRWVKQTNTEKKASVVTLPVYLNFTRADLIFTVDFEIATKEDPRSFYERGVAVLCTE
Method: Thirty-microliter reactions were prepared in 96-well plates as follows. ATPase buffer was supplemented with concentrated stocks of His-dynein 1 (90nM final), compound 8 (4µM final) or an equivalent amount of solvent carrier (3.3% DMSO), followed by a 10 min incubation at room temperature. ATP (0.1 mM final) was added and the mixtures were incubated 5 min at room temperature. NaVO3 (0.1 mM final) was added and the mixtures were again incubated 5 min at room temperature. Vanadate was deliberately omitted from one well. The plate was then transferred to ice and irradiated with 365 nm light for 15 min with the lamp positioned 10 cm above the plate(Spectroline Maxima ML-3500S lamp). Following addition of SDS-PAGE loading buffer and heating (95°, 5 min), individual reactions were resolved on hand-poured 8% tris-glycine polyacrylamide gels. Gels were stained (Coomassie blue), imaged using a Li-Cor Odyssey, and band intensities were analyzed using FIJI.
Quantification of ADP-vanadate dependent photocleavage of dynein was performed as follows: Scanned gels were analyzed with FIJI, and fraction cleaved quantified as follows:
Fraction cleaved = (intensity of band at 250 kDa) /
(intensity of band at 250 kDa + intensity of band at ~350 kDa)

Q: With `N#Cc1c(C2(c3ccc(Cl)cc3)CC2)nn2c1[nH]c(=O)c1cc(I)ccc12` [Compound 8, 2-[1-(4-chlorophenyl)cyclopropyl]-7-iodo-5-oxo-4H-pyrazolo[1,5-a]quinazoline-3-carbonitrile] as the molecule, how does the “Proportion of lysosomes moving at speeds > 250 nm/s” value (CAD cells; 3.5 µM and 5 µM, control ~20%) read?
A: below 10%

Q: And the “Percentage of retrograde-directed lysosomes moving slower than 25 nm/s” value (CAD cells; 3.5 µM, control ~20%)?
A: ~ 47%

Q: What about the “Average track length of moving particles (lysosomes)” value (CAD cells; 3.5 µM) of the same molecule?
A: 15.7 ± 4.7 µm

Q: And the “Percentage of retrograde-directed lysosomes moving slower than 25 nm/s” value (CAD cells; 5 µM, control ~20%)?
A: ~ 59%

Q: And the “Average track length of moving particles (lysosomes)” value (CAD cells; 5 µM)?
A: 6.7 ± 2.7 µm

Q: What about the “Reduction of ADP-vanadate dependent photocleavage relative to controls” value (His-dynein 1) of the same molecule?
A: ~ 2.5 fold

Q: What about the “ADP-vanadate dependent photocleavage of His-dynein 1” value (His-dynein 1; 100 µM ATP, 100 µM vanadate, control 42 ± 3%) of the same molecule?
A: 17 ± 2%

From article PMC5478271, “Chemical structure-guided design of dynapyrazoles, cell-permeable dynein inhibitors with a unique mode of action” (eLife, 2017)
